According to patent US11136314B2, “Forms of afatinib dimaleate” (Johnson Matthey Public Limited Company, priority 2017, dated 2021):

Test: Solid form stability under exposure to water / humidity
Format: physicochemical

stable under exposure to water vapor under ambient conditions (about 25° C., >90% RH)	stable at about 40° C., 75% RH (about 40° C., 75% RH)	stability under exposure to water (exposure to water)	completely converts to a hydrated species (40° C., 75% RH) [days]	Structure (SMILES)	stability compared with afatinib dimaleate Form A (40° C., 75% RH)
about 3 days	over 19 days	stable under exposure to water		CN(C)C/C=C/C(=O)Nc1cc2c(Nc3ccc(F)c(Cl)c3)ncnc2cc1O[C@H]1CCOC1.O=C(O)/C=C\C(=O)O.O=C(O)/C=C\C(=O)O [Form Z, afatinib dimaleate]	more stable than afatinib dimaleate Form A
			≤ 11	CN(C)C/C=C/C(=O)Nc1cc2c(Nc3ccc(F)c(Cl)c3)ncnc2cc1O[C@H]1CCOC1.O=C(O)/C=C\C(=O)O.O=C(O)/C=C\C(=O)O [Afatinib dimaleate Form A, afatinib dimaleate]	
